Patent US20050255131A1, “Clindamycin compositions and delivery system therefor” (priority 2004, published 2005)

Legend:
[1] = Storage stability of clindamycin phosphate solutions; assay type: physicochemical; conditions: solution in water; elevated temperatures
Excerpt: For the clindamycin phosphate solution, a maximum of about 6% salt is soluble in water. This solution is not stable upon long-term storage at elevated temperatures. In order to utilize the chamber in a chamber delivery system wherein the contents of a small chamber are combined with the contents of a larger chamber, compositions containing a concentration of clindamycin phosphate higher than 6% are desirable. In accordance with the present disclosure, solutions containing concentrations of clindamycin in excess of 6% in a minimum amount of water may be prepared by using co-solvents such as glycerin. Clindamycin phosphate by itself is not soluble in glycerin alone. […] Thus, the present compositions may contain a solution of water, clindamycin and glycerin, wherein the amount of water is insufficient alone to solubilize the clindamycin. The term “solubilize” as used with respect to solubilizing clindamycin refers to the ability to dissolve clindamycin and optionally with heating and stirring and maintaining clindamycin in solution at room temperature for at least 24 hours.

[2] = Solubility of clindamycin phosphate in water, glycerin and water/glycerin co-solvent; assay type: physicochemical
Excerpt: For the clindamycin phosphate solution, a maximum of about 6% salt is soluble in water. This solution is not stable upon long-term storage at elevated temperatures. In order to utilize the chamber in a chamber delivery system wherein the contents of a small chamber are combined with the contents of a larger chamber, compositions containing a concentration of clindamycin phosphate higher than 6% are desirable. In accordance with the present disclosure, solutions containing concentrations of clindamycin in excess of 6% in a minimum amount of water may be prepared by using co-solvents such as glycerin. Clindamycin phosphate by itself is not soluble in glycerin alone. […] Thus, the present compositions may contain a solution of water, clindamycin and glycerin, wherein the amount of water is insufficient alone to solubilize the clindamycin. The term “solubilize” as used with respect to solubilizing clindamycin refers to the ability to dissolve clindamycin and optionally with heating and stirring and maintaining clindamycin in solution at room temperature for at least 24 hours. […] By increasing the concentration of clindamycin in solution by means of a co-solvent such as glycerin, the present methods make it possible to dissolve the salt in a small amount of water. […]

- stability of aqueous solution upon long-term storage [1]: not stable
- solubility in glycerin alone ([2]; glycerin alone, no water): not soluble
- maximum salt soluble in water ([2]; water alone): about 6%
SMILES: CCC[C@@H]1C[C@@H](C(=O)N[C@@H]([C@H]2O[C@H](SC)[C@H](OP(=O)(O)O)[C@@H](O)[C@H]2O)[C@H](C)Cl)N(C)C1 [clindamycin phosphate]
